Reference: patent US20170135339A1, “COATING FORMULATION FOR SEED AND SURFACE STERILIZATION” (priority 2015, published 2017)

How the values were obtained:
[1] = system: HEp-2 cells
[2] = system: Human adenovirus type 5 Adenoid 75 strain
[3] = system: Poliovirus type 1 Chat strain

zinc pyrithione
Cytopathic effect on the cells in the cell culture [1]: showed cytopathic effect
Lowest ratio of zinc pyrithione solution which does not show cytopathic effect [1]: 0.01%
Activity against the virus [2]: 99.9%
Reduction in virus titration [2]: at least 4 log
Reduction ratio in virus titration [2]: 4.0 Logarithmic TCID50
Virus titration with disinfectant [2]: 1.0 Logarithmic TCID50
Reduction in virus titration [3]: at least 4 log
Reduction ratio in virus titration [3]: 4.5 Logarithmic TCID50
Virus titration with disinfectant [3]: 1.5 Logarithmic TCID50
